Assay [1] deals with KC-1362 BaF3-EGFR D770-N771 ins NPG cells. The assay can be described thus: Anti-proliferative activity on KC-1362 BaF3-EGFR D770-N771 ins NPG cells. The class given is cell-based. The settings on record: Ba/F3 EGFR.
The target in assay [2] is EGFR-Del19/T790M/C797S kinase (Homo sapiens, UniProt P00533, C797S/T790M, form not given). Put plainly: In-vitro enzyme experiment 2 (HTRF kinase assay), EGFR Del19 T790M C797S. The settings on record: read-out: enzyme inhibition IC50 (nM) EGFR-Del19/T790M/C797S. The class given is biochemical. The protocol: The specific experiment was as follows: • 1. […] Test method of activity of compound • a) a compound diluent was transferred to each well of an assay plate (784075, Greiner) using Echo 550; • b) the assay plate was sealed and centrifuged at 1,000 g for 1 min; • c) 2×EGFR (D770-N771 ins NPG T790M) was prepared in a 1× kinase buffer; • d) 5 μl of the 2×EGFR (D770-N771 ins NPG T790M) was added to a 384-well assay plate (784075, Greiner); • e) the assay plate was centrifuged at 1,000 g for 30 s and incubated at room temperature for 10 min; • f) 2× TK-substrate-biotin (2 μM) and ATP were added to the 1× kinase buffer and mixed; • g) the reaction was started after adding 5 μl of the TK-substrate-biotin (2 μM) and ATP mixture; • h) the assay plate was centrifuged at 1,000 g for 30 s; and the assay plate was sealed and incubated at room temperature for 40 min; • i) 4× Sa-XL 665 was prepared in an HTRF detection buffer; • j) 5 μl of the Sa-XL 665 and 5 μl of a TK-antibody-cryptate were added to each well of the assay plate; • k) the assay plate was centrifuged at 1,000 g for 30 s and incubated at room temperature for 1 h; and • l) fluorescence signals at 615 nm (cryptate) and 665 nm (XL665) were read on an Envision 2104 reader. • 3. Data analysis • 3.1 Calculation of ratio (665/615 nm) of each well • 3.2 Calculation of inhibition rate
Sequence of EGFR-Del19/T790M/C797S kinase (P00533 25-1210 T790M/C797S limits assumed, form open): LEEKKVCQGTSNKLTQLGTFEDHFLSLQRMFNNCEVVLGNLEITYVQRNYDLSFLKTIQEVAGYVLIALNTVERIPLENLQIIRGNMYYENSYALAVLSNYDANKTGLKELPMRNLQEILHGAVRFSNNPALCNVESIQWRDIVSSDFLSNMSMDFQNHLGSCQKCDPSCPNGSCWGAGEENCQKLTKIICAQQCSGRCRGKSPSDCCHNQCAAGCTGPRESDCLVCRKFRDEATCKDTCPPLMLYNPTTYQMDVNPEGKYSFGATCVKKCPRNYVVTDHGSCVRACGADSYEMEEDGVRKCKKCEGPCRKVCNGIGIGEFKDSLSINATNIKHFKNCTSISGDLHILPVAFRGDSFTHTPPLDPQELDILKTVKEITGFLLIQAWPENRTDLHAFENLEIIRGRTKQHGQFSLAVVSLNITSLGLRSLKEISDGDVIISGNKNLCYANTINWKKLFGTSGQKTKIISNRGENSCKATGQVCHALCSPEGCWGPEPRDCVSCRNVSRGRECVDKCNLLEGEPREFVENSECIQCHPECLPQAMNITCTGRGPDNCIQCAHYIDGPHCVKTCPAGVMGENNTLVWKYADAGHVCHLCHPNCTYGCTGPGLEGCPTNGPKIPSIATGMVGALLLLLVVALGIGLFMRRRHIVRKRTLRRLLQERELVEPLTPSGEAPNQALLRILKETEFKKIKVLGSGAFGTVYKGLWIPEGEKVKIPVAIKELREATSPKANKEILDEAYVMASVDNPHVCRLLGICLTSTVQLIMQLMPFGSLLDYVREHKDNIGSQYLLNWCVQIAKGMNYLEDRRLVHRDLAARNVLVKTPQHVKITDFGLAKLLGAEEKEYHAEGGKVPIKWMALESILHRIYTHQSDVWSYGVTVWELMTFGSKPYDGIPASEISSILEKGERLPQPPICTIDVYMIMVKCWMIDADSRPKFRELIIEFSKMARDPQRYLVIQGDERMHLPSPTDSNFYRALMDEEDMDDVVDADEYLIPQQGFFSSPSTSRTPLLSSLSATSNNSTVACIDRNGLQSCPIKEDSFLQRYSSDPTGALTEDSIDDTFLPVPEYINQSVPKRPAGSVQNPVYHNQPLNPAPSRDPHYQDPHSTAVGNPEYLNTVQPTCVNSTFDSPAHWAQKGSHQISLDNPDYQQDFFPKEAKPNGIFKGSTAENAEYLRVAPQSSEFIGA
(§1) [formula] • 3.3 Calculation of IC50 value of compound and drawing dose-effect curve of compound • IC50 values were calculated using GraphPad 6.0 by applying a non-linear regression curve (dose-effect relationship-variable slope) of the logarithm of the compound concentration versus the inhibition rate.
The preparation of the kinase buffer, the test method of the activity of the compound, and the data analysis referred to the relevant definitions in example 117, wherein step c) of the test method of the activity of the compound was replaced by preparing 2×EGFR Del19 T790M C797S in the 1× kinase buffer.

For assay [3], the target named is EGFR D770-N771 ins NPG kinase (Homo sapiens (Human), UniProt P00533, INS770NPG). Put plainly: In-vitro enzyme experiment 1 (HTRF kinase assay), D770-N771 ins NPG kinase. The class given is biochemical.
Sequence of EGFR D770-N771 ins NPG kinase (P00533 other isoform, or with tags, fused parts or gaps del 1-668/ins NPG behind 770 limits assumed): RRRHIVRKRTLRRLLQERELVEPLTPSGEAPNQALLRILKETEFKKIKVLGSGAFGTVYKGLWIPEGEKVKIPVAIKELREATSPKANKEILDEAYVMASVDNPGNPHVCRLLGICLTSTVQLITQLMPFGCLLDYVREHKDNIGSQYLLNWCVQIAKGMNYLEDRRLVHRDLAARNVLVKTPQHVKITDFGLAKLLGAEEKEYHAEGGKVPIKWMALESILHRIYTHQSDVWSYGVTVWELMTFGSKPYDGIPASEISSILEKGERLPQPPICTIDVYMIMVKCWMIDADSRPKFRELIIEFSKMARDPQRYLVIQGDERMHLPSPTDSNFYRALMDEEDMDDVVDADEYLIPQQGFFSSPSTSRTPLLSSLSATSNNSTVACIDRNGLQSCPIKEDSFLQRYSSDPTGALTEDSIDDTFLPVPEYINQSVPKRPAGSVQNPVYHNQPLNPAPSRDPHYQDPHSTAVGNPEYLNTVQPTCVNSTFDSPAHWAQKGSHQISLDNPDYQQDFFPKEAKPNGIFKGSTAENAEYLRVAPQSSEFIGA
For assay [4], the target named is EGFR (D770-N771 ins NPG T790M) kinase (Homo sapiens (Human), UniProt P00533, INS770NPG/T790M). Put plainly: In-vitro enzyme experiment 1 (HTRF kinase assay), EGFR D770-N771 ins NPG T790M. The class given is biochemical. The protocol: The specific experiment was as follows: • 1. Preparation of 1× concentration kinase buffer • 1 volume of 5 times concentration of an enzyme buffer diluted with 4 volumes of distilled water; 5 mM magnesium chloride; 1 mM DTT; and 1 mM MnCl2. • 2. Test method of activity of compound • a) a compound diluent was transferred to each well of an assay plate (784075, Greiner) using Echo 550; • b) the assay plate was sealed and centrifuged at 1,000 g for 1 min; • c) 2×EGFR (D770-N771 ins NPG T790M) was prepared in a 1× kinase buffer; • d) 5 μl of the 2×EGFR (D770-N771 ins NPG T790M) was added to a 384-well assay plate (784075, Greiner); • e) the assay plate was centrifuged at 1,000 g for 30 s and incubated at room temperature for 10 min; • f) 2× TK-substrate-biotin (2 μM) and ATP were added to the 1× kinase buffer and mixed; • g) the reaction was started after adding 5 μl of the TK-substrate-biotin (2 μM) and ATP mixture; • h) the assay plate was centrifuged at 1,000 g for 30 s; and the assay plate was sealed and incubated at room temperature for 40 min; • i) 4× Sa-XL 665 was prepared in an HTRF detection buffer; • j) 5 μl of the Sa-XL 665 and 5 μl of a TK-antibody-cryptate were added to each well of the assay plate; • k) the assay plate was centrifuged at 1,000 g for 30 s and incubated at room temperature for 1 h; and • l) fluorescence signals at 615 nm (cryptate) and 665 nm (XL665) were read on an Envision 2104 reader. • 3. Data analysis • 3.1 Calculation of ratio (665/615 nm) of each well • 3.2 Calculation of inhibition rate
Sequence of EGFR (D770-N771 ins NPG T790M) kinase (P00533 other isoform, or with tags, fused parts or gaps T790M/del 1-668/ins NPG behind 770 limits assumed): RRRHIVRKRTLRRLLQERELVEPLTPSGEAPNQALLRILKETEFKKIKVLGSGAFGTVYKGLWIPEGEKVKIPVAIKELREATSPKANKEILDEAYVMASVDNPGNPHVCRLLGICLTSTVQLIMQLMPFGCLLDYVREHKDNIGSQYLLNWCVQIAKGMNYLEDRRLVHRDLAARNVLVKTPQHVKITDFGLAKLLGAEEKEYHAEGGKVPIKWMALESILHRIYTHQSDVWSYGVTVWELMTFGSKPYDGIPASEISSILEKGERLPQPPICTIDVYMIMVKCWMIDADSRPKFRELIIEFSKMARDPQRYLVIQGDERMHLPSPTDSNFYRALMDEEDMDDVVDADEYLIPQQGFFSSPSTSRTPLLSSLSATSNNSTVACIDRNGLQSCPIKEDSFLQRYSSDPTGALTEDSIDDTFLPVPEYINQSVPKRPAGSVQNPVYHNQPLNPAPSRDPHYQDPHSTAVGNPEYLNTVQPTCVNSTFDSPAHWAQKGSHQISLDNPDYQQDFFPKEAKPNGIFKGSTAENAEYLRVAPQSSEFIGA
as §1
Y=lowest value+(highest value−lowest value)/(1+10^((Log IC50−X)×slope)) • X: logarithm of inhibitor concentration; and Y: inhibition rate. • 3.4 Double test report • 3.4.1 After one tester completed a report, another tester again checked the report to ensure that data analysis was correct. • 3.4.2 The data was exported from the software and manually analyzed. • 3.4.2.1 The rate was converted into the inhibition rate. All the IC50 values were first calculated with the inhibition rate using Prism GraphPad 6.0. • 3.4.2.2 Then the IC50 value was recalculated using the ratio to check the accuracy of the analysis. • 3.4.3 The number of all the compounds was ensured to be correct.
(Time-resolved FRET reads energy transfer from a long-lived donor to a nearby acceptor.)

Assay [5] relates to H1975 EGFR-L858R/T790M. Put plainly: Cell proliferation inhibition experiment (CCK-8), H1975. The class given is cell-based. The settings on record: Homo sapiens, NCI-H1975, 72 h. The text has this:
(§2) Inhibition rate %=[(A0−AS)/(A0−AC)]×100%.

Assay [6] concerns KC-0178:NCI-1975 EGFR-L858R/T790M/C797S. The assay can be described thus: Cell proliferation inhibition experiment (CCK-8), KC-0178. The class given is cell-based. The note with it: Homo sapiens, 72 h.
Excerpt: as §2

Assay [7] concerns KC-1474:PC-9 EGFR-Del19/T790M/C797S. The assay can be described thus: Cell proliferation inhibition experiment (CCK-8), KC-1474. The note with it: Homo sapiens, 72 h. The class given is cell-based.
Excerpt: as §2

Assay [8] concerns A549 EGFR-WT. Put plainly: Cell proliferation inhibition experiment (CCK-8), A549. The settings on record: Homo sapiens, A549, 72 h, read-out: cell proliferation inhibition IC50 (μM) A549, 72 h, CCK-8.
The test system of assay [9] is PC-9 EGFR-Del19. Put plainly: Cell proliferation inhibition experiment (CCK-8), PC-9. The class given is cell-based. The settings on record: Homo sapiens, 72 h.
Excerpt: as §2

For assay [10], the system named is HCC827 EGFR-Del19. The assay can be described thus: Cell proliferation inhibition experiment (CCK-8), HCC827. The class given is cell-based. The settings on record: Homo sapiens, 72 h.
Excerpt: as §2

Where two headings read alike, the source gives them in different places.

For the compound `CN1CCN(c2ccc(Nc3nc(NC4CCN(S(C)(=O)=O)CC4)c4c(C(=O)c5ccc(F)cc5)c[nH]c4n3)cc2)CC1` [Example 64], the IC50 in [1] is 200 nM; in assay [2] it was 100 to 600 nM; in [3], 24.2 nM; in assay [4], 93.6 nM.

As for `CN1CCN(c2ccc(Nc3nc(N[C@@H]4C=C[C@H](CO)C4)c4c(C(=O)c5ccc(F)cc5)c[nH]c4n3)cc2)CC1` [Example 19], the IC50 in assay [2] was 10 to 100 nM; in [5] it was 0.1 to 1 µM; in assay [6], 1 to 2 µM; in [7] it was 0.1 to 1 µM; in assay [8] it was 0.1 to 1 µM; in [9], below 0.1 µM.

For `CN1CCN(c2ccc(Nc3nc(N[C@H]4CC[C@H](O)CC4)c4c(C(=O)c5ccc(F)cc5)c[nH]c4n3)cc2)CC1` [Example 56], the IC50 in assay [2] is 10 to 100 nM; in assay [5], 0.1 to 1 µM; in assay [6], 1 to 2 µM; in assay [7], below 0.1 µM; in [8] it was 0.1 to 1 µM; in [9], below 0.1 µM.

Take `C=CC(=O)N1CC[C@@H](Nc2nc(Nc3ccc(N4CCN(C)CC4)cc3)nc3[nH]cc(C(=O)c4ccc(F)cc4)c23)C1` [Example 26]: the IC50 in [1] was 150 nM; in [3] it was 3.52 nM; in assay [8] (Table 5 numeric), 0.52 µM; in [4] it was 6.31 nM.

Consider `CN1CCN(c2ccc(Nc3nc(NC45CC6CC(C4)C(O)C(C6)C5)c4c(C(=O)c5ccc(F)cc5)c[nH]c4n3)cc2)CC1` (stereo not drawn) [Example 71], for which the IC50 in [1] is 70 nM; in assay [2], 10 to 100 nM; in assay [3], 4.54 nM; in assay [4], 9.27 nM.

In the case of `C=CC(=O)N1CC[C@H](Nc2nc(Nc3ccc(N4CCN(C)CC4)cc3)nc3[nH]cc(C(=O)c4ccccc4F)c23)C1` [Example 46], the figures for the IC50 in assay [5], in [10] and in assay [9] were below 0.1 µM, 0.1 to 1 µM and below 0.1 µM, respectively.

Turning to `O=C(c1cccc(F)c1)c1c[nH]c2nc(Nc3ccc(N4CCOCC4)cc3)nc(N[C@H]3CC[C@H](CO)CC3)c12` [Example 92], the IC50 in assay [5] is below 0.1 µM; in [10] it was below 0.1 µM; in [8] (Table 5 numeric) it was 0.07 µM; in assay [9], 0.1 to 1 µM.

For `CN1CCN(c2ccc(Nc3nc(N[C@H]4CC[C@@H](CO)CC4)c4c(C(=O)c5ccc(F)cc5)c[nH]c4n3)cc2F)CC1` [Example 103], the IC50 is 10 to 100 nM in [2]; 0.1 to 1 µM in assay [5]; 1 to 2 µM in [6]; below 0.1 µM in assay [7]; 0.1 to 1 µM in [8]; below 0.1 µM in [9].

With `CN1CCN(c2ccc(Nc3nc(NC4CCOCC4)c4c(C(=O)c5ccc(F)cc5)c[nH]c4n3)cc2)CC1` [Example 40], the IC50 in [7] was below 0.1 µM; in assay [10], 0.1 to 1 µM; in assay [8], 0.1 to 1 µM; in assay [8] (Table 5 numeric) it was 0.23 µM; in assay [9] it was 0.1 to 1 µM.

As to `CN1CCN(c2ccc(Nc3nc(NC45CC6CC(CC(O)(C6)C4)C5)c4c(C(=O)c5ccc(F)cc5)c[nH]c4n3)cc2)CC1` [Example 70], the values for the IC50 in assay [1], in assay [2] and in assay [3] were 54 nM, 10 to 100 nM and 6.55 nM, respectively.

Regarding `Cn1cc(Nc2nc(N[C@H]3CC[C@H](CO)CC3)c3c(C(=O)c4ccc(F)cc4)c[nH]c3n2)cn1` [Example 110], the IC50 in assay [2] was 10 to 100 nM; in [6], below 0.1 µM; in assay [7], 0.1 to 1 µM; in [10], below 0.1 µM; in assay [8], 0.1 to 1 µM; in assay [9], below 0.1 µM.

As to `CN1CCN(c2ccc(Nc3nc(N[C@H]4C=C[C@@H](CO)C4)c4c(C(=O)c5ccc(F)cc5)c[nH]c4n3)cc2)CC1` [Example 20], the IC50 was 10 to 100 nM in assay [2]; 0.1 to 1 µM in assay [5]; 1 to 2 µM in assay [6]; 0.1 to 1 µM in [7]; 0.1 to 1 µM in assay [8]; below 0.1 µM in assay [9].

Regarding `CN1CCN(c2ccc(Nc3nc(NC4CCCCC4O)c4c(C(=O)c5ccc(F)cc5)c[nH]c4n3)cc2)CC1` (stereo not drawn) [Example 43], the IC50 in assay [2] lay within 100 to 600 nM; in assay [5], 0.1 to 1 µM; in assay [10] it was 0.1 to 1 µM; in [9] it was 0.1 to 1 µM.

With `CCN1CCN(c2ccc(Nc3nc(N[C@H]4CC[C@@H](CO)CC4)c4c(C(=O)c5ccc(F)cc5)c[nH]c4n3)cc2)CC1` [Example 104], the IC50 in assay [1] was 160 nM; in assay [2] it was below 10 nM; in assay [3] it was 2.72 nM; in assay [5] it was below 0.1 µM; in assay [6] it was 0.1 to 1 µM; in [7], below 0.1 µM. Further, the IC50 was below 0.1 µM in assay [9] and 11.4 nM in assay [4].

As to `CN1CCC(n2cc(Nc3nc(N[C@H]4CC[C@@H](CO)CC4)c4c(C(=O)c5ccc(F)cc5)c[nH]c4n3)cn2)CC1` [Example 115], the IC50 in [1] is 560 nM; in assay [2], below 10 nM; in [3], 2.46 nM; in [5] it was 0.1 to 1 µM; in assay [6] it was 1 to 2 µM; in [7], 0.1 to 1 µM. In addition, the IC50 in [8] was 1 to 2 µM; in assay [9] it was 0.1 to 1 µM; in [4], 8.16 nM.

On to `CN1CCN(c2ccc(Nc3nc(NC4CC5(COC5)C4)c4c(C(=O)c5ccc(F)cc5)c[nH]c4n3)cc2)CC1` [Example 18], for which the IC50 in [1] was 150 nM; in assay [2], 10 to 100 nM; in assay [3], 28.2 nM.

For the compound `Cn1cc(Nc2nc(N[C@H]3CC[C@@H](CO)CC3)c3c(C(=O)c4ccc(F)cc4)c[nH]c3n2)cn1` [Example 114], the IC50 in assay [1] is 160 nM; in assay [2] it was below 10 nM; in assay [3], 4.12 nM; in assay [5] it was below 0.1 µM; in assay [6], 0.1 to 1 µM; in [7], below 0.1 µM. Further, the results for the IC50 in assay [8], in assay [9] and in assay [4] were 0.1 to 1 µM, below 0.1 µM and 18.2 nM, respectively.
